Experimental data taken from patent US8716437B2 (priority 2007, dated 2014).

Legend:
KcsA-1.3 = experiment: Phage ELISA on immobilized KcsA-1.3; assay type: binding; details: in words
Description: Panning was performed, in triplicate, on surfaces without a coating (none), and on immobilized KcsA-Kv1.3 receptors (KcsA-Kv1.3), wild-type KcsA receptors (KcsA-WT), and antiserum to sarafotoxin S6b (anti-S6b). The input ligands per well are 10^9, 10^8, 10^7. The ligands included: sarafotoxin S6b (upper panel FIG. 4), kaliotoxin-1 (KTX, middle row FIG. 4), no ligand helper phages (bottom row FIG. 4).
For each binding determination, 3 wells in a NUNC-Immuno MaxiSorp 96-Well plates were coated overnight at 4° C. with 1 ug of KcsA-1.3 or KcsA in 50 ul of 100 mM NaHCO3, 1 mM DDM, pH 9, then washed once with Tris-HC150 mM, NaCl-150 mM pH7.5 containing 0.1% Tween 20, 1 mM DDM (TBST). Wells were then blocked at room temperature with 200 ul of Tris 50 mM NaCl 150 mM pH 7.5, 1 mM DDM, (TBS) containing 0.5% BSA, then washed once with TBST. For each well, 108-1010 phages were added in 50 ul of TBS containing 0.5% BSA and incubated on a rotary shaker at room temperature for 2 hrs. Following five washes with TBST, 50 ul of anti-phage antibody-peroxidase conjugated TBST with 0.5% BSA was added and incubated on a rotary shaker for 2 hours at room temperature, then washed 5 times with TBST and twice with TBS. Fifty (50) ul of 1 step turbo-TMB-ELISA was added and the reaction is stopped by 50 μl of 2M H2SO4 and the absorbancy was read at 450 nm.

KcsA-Kv1.3 = experiment: Phage panning on purified immobilized KcsA-Kv1.3 (KcsA-1.3); assay type: binding; details: mixture of five ligands
Kv1.3 = Kv1.3 (Homo sapiens, UniProt P22001); experiment: Phage panning on live cells (HEK, COS) expressing Kv1.3 channels; assay type: binding; design: expressed in transfected cells; host or cells: HEK (HEK293) and COS cells; details: for enrichment of KTX, Kv1.3 transfected vs. vector cells: 5×10^11 phagemids; for OUTPUT KTX (%): mixture of KTX and nonspecific phages, one round of panning
Text: In another example, receptors may be expressed in cells. For example, cells may be stably or transiently transfected with one or more receptors can be utilized as expressed in native tissues (Clackson and Lowman, Phage display. Oxford University Press, 2004; Barbas et al., Phage display. A laboratory manual. Cold Spring Harbor Laboratory Press, 2001; Sambrook et al., Molecular Cloning: A Laboratory Manual. Vols 1-3. Cold Spring Harbor Laboratory Press, 1989). In one example, HEK (mammalian human embryonic kidney) and COS cells expressing wild-type Kv1.3 or Kv1.3-PDZ domain chimera were employed, the latter target allowing a “double” panning (e.g., as a control or to enhance binding affinity) using phages expressing kaliotoxin-1 and/or PDZ-binder domain.
Panning may be performed by the binding of ligands to the receptors, followed by washes and ligand recovery. In one example, panning is performed according to standard methods of phage display (Clackson and Lowman, Phage display. Oxford University Press, 2004; Barbas et al., Phage display. A laboratory manual. Cold Spring Harbor Laboratory Press, 2001). Panning may be repeated until the desired enrichment is achieved. In addition, libraries can be pre-depleted on surfaces or cells that contain no receptors or on a receptor where the putative ligand receptor domain may be directly or indirectly altered. Additionally, any and all conditions of panning may be varied, altered or changed to achieve optimal results, such as the isolation of a specific ligand. Panning variations include, but are not limited to, the presence of competing ligand(s), presence of excess target(s), length and temperature of binding, pre-absorption of the ligand library on one or more different receptor(s) or cells or surfaces, composition of binding solution (e.g., ionic strength), stringency of washing, and recovery procedures. Phages recovered from panning may be processed for further rounds of panning, functional analysis, and/or sequencing/genotyping to deduce the resulting ligands' amino acid sequence or biological properties (Clackson and Lowman, Phage display. Oxford University Press, 2004; Barbas et al., Phage display. A laboratory manual. Cold Spring Harbor Laboratory Press, 2001).
5×10^11 phagemids were added to the cell cultures in “B.”
A library of KTX-like ligands, with a calculated diversity of greater than 11,000, was created de novo. The library comprised approximately 8% KTX-like ligands and 92% non-KTX-like ligands. The library of ligands was screened on Kv1.3 receptors expressed in HEK and COS cells.
Transfection efficiency was monitored with cotransfection of gene encoding for the green fluorescence protein (GFP) and observing the fluorescence after 1-2 days following transfection.
KTX and mokatoxin-1 are Kv1.3 specific scorpion toxins. […] Following incubation of the cells with the phages, cells were subjected to wash to remove the unbound/weakly bound phages. The remaining bound phages were eluted from the cells and transformed into XL1 E. coli, and plated onto LB plates with antibiotic selecting for the phagemids.

guinea pig ileum = experiment: Spontaneous motility (twitches) of guinea pig ileum strips; details: reference toxins 10 nM; mokatoxin-1 1-100 nM
[1] = HEK cells, kaliotoxin-1-phage 1 out of 10^10 phage

Kv1.3, sequence (P22001 whole entry): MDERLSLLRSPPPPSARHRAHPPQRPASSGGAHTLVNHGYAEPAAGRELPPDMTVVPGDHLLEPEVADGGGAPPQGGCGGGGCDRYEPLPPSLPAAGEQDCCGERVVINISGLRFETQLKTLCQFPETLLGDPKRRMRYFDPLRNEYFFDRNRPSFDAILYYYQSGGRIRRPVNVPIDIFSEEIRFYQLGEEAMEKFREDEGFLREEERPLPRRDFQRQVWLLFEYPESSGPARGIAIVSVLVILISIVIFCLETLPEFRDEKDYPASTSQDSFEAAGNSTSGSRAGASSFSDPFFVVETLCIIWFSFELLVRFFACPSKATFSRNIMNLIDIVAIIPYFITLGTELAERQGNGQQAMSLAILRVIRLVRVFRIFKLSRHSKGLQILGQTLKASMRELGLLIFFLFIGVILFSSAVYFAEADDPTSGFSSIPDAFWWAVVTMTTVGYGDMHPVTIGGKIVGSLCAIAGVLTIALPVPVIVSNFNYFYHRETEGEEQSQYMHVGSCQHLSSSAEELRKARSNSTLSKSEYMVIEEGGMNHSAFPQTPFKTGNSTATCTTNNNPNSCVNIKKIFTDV

CC[C@H](C)[C@H](NC(=O)[C@H](CCC(=O)O)NC(=O)[C@@H](NC(=O)CN)C(C)C)C(=O)N[C@@H](CC(N)=O)C(=O)N[C@H](C(=O)N[C@@H](CCCCN)C(=O)N[C@H]1CSSC[C@@H]2NC(=O)[C@H](CCCCN)NC(=O)CNC(=O)[C@H](Cc3ccccc3)NC(=O)[C@H](CCCNC(=N)N)NC(=O)[C@H](CCSC)NC(=O)CNC(=O)[C@H](C)NC(=O)[C@H](CC(=O)O)NC(=O)[C@H](CCCCN)NC(=O)[C@@H]3CSSC[C@@H](C(=O)N[C@H](C(=O)N4CCC[C@H]4C(=O)N[C@@H](CCCCN)C(=O)O)[C@@H](C)O)NC(=O)[C@H](Cc4c[nH]cn4)NC(=O)[C@H](CSSC[C@H](NC(=O)[C@H](CCC(N)=O)NC(=O)[C@@H]4CCCN4C(=O)[C@H](CO)NC(=O)CNC(=O)[C@H](CO)NC1=O)C(=O)N[C@@H](CC(C)C)C(=O)N[C@@H](CCCCN)C(=O)N1CCC[C@H]1C(=O)N3)NC(=O)[C@H](CCCCN)NC(=O)[C@H](CCCNC(=N)N)NC(=O)[C@H](CC(N)=O)NC(=O)[C@H](CCSC)NC2=O)C(C)C [KTX, kaliotoxin-1]
binding of phage to KcsA-1.3 (KcsA-Kv1.3) (KcsA-1.3): specific binding
enrichment after one round of panning (KcsA-Kv1.3): 3.6 fold
Output (% Ligands) KcsA-Kv.13 (n = 20) (KcsA-Kv1.3; one round of panning): 100%
enrichment of KTX, Kv1.3 transfected vs. vector cells (Kv1.3; COS cells): ~10 fold
enrichment of KTX, Kv1.3 transfected vs. vector cells (Kv1.3; HEK cells): ~20 fold
2nd round (n = 20) % (Kv1.3; [1]): 0%
3rd round (n = 12) % (Kv1.3; [1]): 58%
OUTPUT KTX (%) (Kv1.3; input ratio 1/99, actual 5/95 (n = 20)): 26 (n = 20) %
OUTPUT KTX (%) (Kv1.3; input ratio 10/90, actual 0/100 (n = 10)): 22 (n = 18) %
OUTPUT KTX (%) (Kv1.3; input ratio 10/90, actual 7/93 (n = 30)): 30 (n = 30) %
induction of twitches in ileum strips (guinea pig ileum): induced twitches
